Test results published in US8236756B2, “Prodrugs cleavable by CD26” (Consejo Superior de Investigaciones Clentificas (CSIC), priority 2003, dated 2012).

Assays:
[1] = target: T1, purified CD26 (Homo sapiens, UniProt P27487); test: Conversion of peptide prodrugs to parent compound by purified CD26 (HPLC); format: biochemical; conditions: purified CD26; within 60 min
T1 construct: made in house
How it was run: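 Peptide prodrugs of lipophilic nucleoside analogues were incubated with purified human CD26 at a final concentration of 1.5 milliUnits in PBS at pH 7.5, 37° C, in a 400 μl reaction started by enzyme addition. Samples were mixed with cold methanol to precipitate protein, centrifuged, and the supernatants analysed by reverse-phase HPLC to quantify conversion to the parent compound.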

[2] = target: T2, CD26 (Homo sapiens, UniProt P27487); test: Inhibition of CD26-catalysed conversion of GP-pNA to GP+pNA (pNA release, absorption at 400 nm); format: biochemical; conditions: 50 μM GP-pNA
T2 construct: made in house
T2 sequence (P27487 whole entry): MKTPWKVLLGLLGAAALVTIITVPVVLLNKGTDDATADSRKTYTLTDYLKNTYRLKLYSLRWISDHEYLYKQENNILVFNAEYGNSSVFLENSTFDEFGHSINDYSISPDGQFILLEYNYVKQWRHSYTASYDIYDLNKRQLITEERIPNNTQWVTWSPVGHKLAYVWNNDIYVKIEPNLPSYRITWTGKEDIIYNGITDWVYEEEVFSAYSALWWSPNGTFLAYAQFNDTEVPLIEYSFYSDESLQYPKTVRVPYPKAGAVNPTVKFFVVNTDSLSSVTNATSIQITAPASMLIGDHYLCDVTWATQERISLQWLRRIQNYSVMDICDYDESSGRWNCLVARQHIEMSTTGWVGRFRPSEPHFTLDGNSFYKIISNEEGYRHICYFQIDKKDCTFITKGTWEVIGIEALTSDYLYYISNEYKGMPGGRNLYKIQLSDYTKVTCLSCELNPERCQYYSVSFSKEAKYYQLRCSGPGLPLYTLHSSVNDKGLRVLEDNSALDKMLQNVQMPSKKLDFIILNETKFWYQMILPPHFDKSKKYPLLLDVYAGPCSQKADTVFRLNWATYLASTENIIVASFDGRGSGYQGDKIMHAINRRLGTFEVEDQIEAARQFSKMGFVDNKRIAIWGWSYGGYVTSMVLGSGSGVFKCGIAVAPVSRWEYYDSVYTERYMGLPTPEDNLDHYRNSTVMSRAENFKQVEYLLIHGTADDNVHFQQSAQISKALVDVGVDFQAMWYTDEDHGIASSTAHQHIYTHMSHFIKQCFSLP
Protocol: The CD26 catalytic reaction was measured by recording the increase of absorption caused by pNA release at 400 nm.
To reveal whether CD26 recognizes such synthetic di/tripeptide derivatives of lipophilic nucleoside analogues as a substrate, 50 μM CAM-405 or CAM-431 was exposed to 5.7 mUnits of purified CD26, and the conversion of CAM-405 or CAM-431 to respectively CAM-212 or CAM-403 (Val-NAP-TSAO) was recorded in function of incubation time by HPLC analysis. […] The inhibitory activity of any dipeptide can be evaluated by the above mentioned assay.

[3] = Conversion of prodrugs to parent compound by human serum diluted in PBS; format: in vitro ADME; conditions: 2% HS in PBS
Protocol: (§1) Human and bovine serum were incubated for 3 hr, 6 hr and/or 24 hr at 37° C. in the presence of 50 μM CAM-405. The sera were diluted in PBS at a final concentration of 0.5, 1, 2.5 or 5%. […] The longer the incubation time, and the higher the serum concentration used, the faster the conversion of CAM-405 to CAM-212 occurred (FIG. 4). As also noted for CD26, HS- and BS-catalysed reaction slowed down in function of time, and was not linearly proportional with serum concentration (FIG. 4). These findings provide again evidence for a pronounced feed-back inhibition of dipeptidyl-peptidase activity in human and bovine serum by the released Val-Pro dipeptide. HS was more efficient in converting CAM-405 to CAM-212 than BS (FIG. 4). Since 1% HS is able to hydrolyse ˜20% of 50 μM CAM-405 within 3 hrs of incubation, it could be calculated that undiluted serum would have been able to convert this prodrug amount to its parent compound at a hundred fold higher speed, that is, within 1.8 min, provided that no feed-back inhibition would have occurred (as expected in the intact organism where release of Pro-Val would immediately result in disappearance from the plasma due to several mechanisms including organ uptake, renal excretion, etc.).
Only a very limited amount of NAP-TSAO (but not D-Pro-NAP-TSAO) had been detected (FIG. 6).
(§2) Ten percent BS or HS converted 40 to 70% of PI-2 to PI-1 in one hour (FIG. 10). Two percent BS and HS converted PI-2 to PI-1 by 8% and 25%, respectively. After 4 hrs, 35% and 95% of compound was hydrolyzed by BS and HS, respectively (FIG. 11).
(§3) The TSAO derivatives depicted in FIG. 1 can be synthesised as described below. GlyPro-pNA (GP-pNA), Diprotin A and Val-Pro were purchased from Sigma-Aldrich (Bornem, Belgium). CD26 was purified as described before [De Meester et al. J. Immunol. Methods (1996), 189: 99-105]. Foetal bovine serum (FBS) was obtained from Integro (Dieren, The Netherlands). Human serum represented a pooled serum that was derived from 10 healthy volunteers (blood donors). Human lymphocyte CEM cells were derived from the ATCC (Rockville, Md.).

[4] = Conversion of prodrugs to parent compound by bovine serum diluted in PBS; format: in vitro ADME; conditions: 2% BS in PBS
Protocol: as §1, §2, §3

[5] = Inhibition of GP-pNA conversion to pNA by 2% bovine serum; format: biochemical; conditions: 2% BS in PBS
[6] = Inhibition of GP-pNA conversion to pNA by 2% human serum; format: biochemical; conditions: 2% HS in PBS
[7] = time not restated (one hour in the sentence before)

T1 sequence (P27487 whole entry): as above

## CC(C)CN(C[C@@H](O)[C@H](Cc1ccccc1)NC(=O)O[C@H]1CO[C@H]2OCC[C@H]21)S(=O)(=O)c1ccc(CNC(=O)[C@@H]2CCCN2C(=O)[C@@H](N)C(C)C)cc1 [Val-Pro-PI 1]
[1]
  Conversion of Val-Pro-PI 1 (PI-2) to PI 1 by purified CD26 within 60 min, in words: completely converted
[2]; 20 μM
  Inhibition of release of pNA from GP-pNA at 20 μM, in words: could inhibit
[2]; 100 μM
  Competition with GP-pNA for CD26 at 100 μM, in words: efficiently competed
[3]; 4 hrs
  Compound hydrolyzed by HS after 4 hrs: 95%
[3]; [7]
  Conversion to PI 1 by two percent HS: 25%
[4]; 4 hrs
  Compound hydrolyzed by BS after 4 hrs: 35%
[4]; [7]
  Conversion to PI 1 by two percent BS: 8%
[5]
  Inhibition of GP-pNA conversion to pNA by two percent BS, in words: even more efficiently inhibited
[6]
  Inhibition of HS-catalysed GP-pNA conversion to pNA, in words: competitively inhibited
